The results in this text go back to US7534558B2, “In vitro diagnostic test for enterovirus infections” (Universite de Lille 2 Droit Et Sante, priority 2003, dated 2009).

The subject of assay [1] is anti-VP4 antibodies in plasmas or serums. Kind of assay: ELISA of plasmas/serums on wells coated with VP4 protein or VP4 peptides. Type of assay: binding, human. As to conditions: diluted 1/50, antigen coated at 5 μg/ml, 490 nm. As for the experimental part: 40 plasmas from non diabetic patients and 40 plasmas or serums from diabetic patients were assayed.
The VP4 protein or the 5 VP4 peptides, diluted at 5 μg/ml in PBS buffer pH=7.4, are coated in the wells of a microplate of 96 wells (FluoroMunc, MaxiSorp surface, NUNC, Danemark) at the rate of 100 μl/well. The plates are incubated for 1 hour at 37° C. under humid atmosphere, then left for 24 h at room temperature. After 3 washings with PBS buffer, the wells are saturated with 300 μl of saturation buffer for 1 hour at 37° C. under humid atmosphere, before washing 3 times with the washing buffer. Then 250 μl of post-coating buffer are added to each well and the plates are incubated for 24 h at room temperature, then stored at 4° C. until use.
The wells coated with the VP4 protein or the different peptides VP4 are washed 3 times with washing buffer in order to remove the post-coating solution. Then 100 μl of the plasmas or serums diluted to 1/50th in dilution buffer are added to different wells and the plates are incubated for 1 hour at 37° C. under humid atmosphere. Simultaneously, a negative control well containing 100 μl of dilution buffer is carried out. Then the wells are washed 3 times with the washing solution and 100 μl of secondary antibody solution are added to each well. After incubation for 1 h at 37° C. under humid atmosphere, the wells are washed 5 times with the washing solution and 100 μl of substrate solution are added to each well. The plates are incubated for 30 minutes at room temperature and in the dark. The coloured reaction is stopped by addition of 25 μl of H2SO4 2M (1M) per well and the plates are read in a plate reader at a wavelength of 490 nm.
ODs obtained for each serum with the VP4 protein and the different peptides VP4 were divided by the OD obtained with the negative control. The following Tables show the mean +/− standard deviation of the rates of OD obtained with the two series of assayed serums (Patient=diabetic patients, Control=not diabetic). (see FIGS. 8 à 10)
A general note: ELISA stands for enzyme-linked immunosorbent assay.

The subject of assay [2] is different CVB serotypes (CVB1 to CVB6)/plasma induced IFNα production by PBMCs. In words: IFNα production during infection of PBMCs by different CVB serotypes in presence of plasma preincubated with VP4-CVB4E2. Type of assay: cell-based, human. As to conditions: plasma 1/10 preincubated 1 h with VP4 recombinant protein of CVB4E2 diluted 1/10. As for the experimental part: PBMCs separated from whole heparinated blood are distributed into microwells (plate of 96 wells), at the rate of 5 to 8.10^5 cell in 100 μl of supplemented RPMI medium by well. The infection of PBMC is made with a final volume of 100 μl of preparation in each well. After incubation for 48 h at 37° C. under a 5% CO2 atmosphere and 90% humidity, the supernatant is harvested and used immediately for IFNα dosage, or clarified by centrifugation for 10 minutes at 180×g and stored at −80° C. until dosage of the produced IFNα.
The concentration of the produced IFNα is determined with a sensitive and specific technique, the DELFIA method (Dissociation Enhanced Lanthanide FluoroImmmoAssay) (Rönnblom and al 1997).
The dosage of IFNα is performed following the DELFIA principle (Dissociation Enhanced Lanthanide FluoroImmunoAssay), based on a immunofluorescence in retarded phase method using antibodies binding IFNα of which one is labelled with europium. The use of an activation solution will release the europium conjugated with antibodies and emit a fluorescence proportional to the amount of produced IFNα and measured with a fluorometer (fluorometer LKB Wallac 1230 ARCOSO®, Turku, Finlande).
Monoclonal anti-IFNα antibodies LT 273 (5.4 mg/ml) and LT 293 (4.8 mg/ml) supplied by Dr Gunar Alm (Uppsala, Sweden) are coated to the bottom of the wells after an incubation for 12 hours at room temperature. […]

For “recombinant VP4 protein: recombinant VP4 protein of CVB4E2, made in E. coli as MBP-VP4 fusion and cleaved by Factor Xa”, the “Mean value of OD ratio (OD / OD of negative control), ELISA” value is reported as 0.695 in assay [1] (Control = 40 serums of non diabetic patients) and 2.119 in assay [1] (Patient = 40 serums of diabetic patients). For the same substance, the “IFNα production with CVB serotypes other than CVB4E2” value in assay [2] is “remains high and stable”.
